According to patent US6420570B1, “Psoralen compounds” (priority 1993, dated 2002):
Counter-ions that a name gives are not always drawn. Like-named read-outs stand apart in the source and are kept apart here.

Experiments:
TA1537 = assay: Ames assay, dark mutagenicity, strain TA1537; conditions: TA1537 −S9; 10 μg/plt
Description: (§1) In this example the compounds of the present invention are tested for their dark mutagenicity using an Ames assay. The procedures used for the Salmonella mutagenicity test as described in detail by Maron and Ames were followed exactly. Maron, D. M. and B. N. Ames, Mutation Research 113:173 (1983). A brief description for each procedure is given here. The tester strains TA97a, TA98, TA100, TA102, TA1537 and TA1538 were obtained from Dr. Ames. TA97a, TA98, TA1537 and TA1538 are frameshift tester strains. TA100 and TA102 are base-substitution tester strains. Upon receipt each strain was cultured under a variety of conditions to confirm the genotypes specific to the strains.
(§2) The first tests done with the strains were to determine the range of spontaneous reversion for each of the strains. With each mutagenicity experiment the spontaneous reversion of the tester strains to histidine independence was measured and expressed as the number of spontaneous revertants per plate. This served as the background controls.
(§3) For all experiments, the pre-incubation procedure was used. In this procedure one vial of each tester strain was thawed and 20 μL of this culture was added to 6 mL of Oxoid Nutrient Broth #2. This solution was allowed to shake for 10 hours at 37° C. In the pre-incubation procedure, 0.1 mL of this overnight culture was added to each of the required number of sterile test tubes. To half of the tubes 0.5 mL of a 10% S-9 solution containing Aroclor 1254 induced rat liver extract (Molecular Toxicology Inc., Annapolis, MD), and MgCl2, KCl, glucose-6-phosphate, NADP, and sodium phosphate buffer (Sigma, St. Louis. Mo.) were added. To the other half of the tubes 0.5 mL of 0.2M sodium phospate buffer, pH 7.4, was used in place of the S-9 mixture (the -S9 samples) Finally 0.1 mL of the test solution containing either 0.0.1, 0.5, 1, 5, 10, 50, 100, 250, or 500 μg/mL of the test compound was added. The 0.7 mL mixture pre-incubated while shaking for 20 minutes at 37° C. After shaking, 2 mL of molten top agar supplemented with histidine and biotin were added to the 0.7 mL mixture and immediately poured onto a minimal glucose agar plate (volume of base agar was 20 ml.). The top agar was allowed 30 minutes to solidify and then the plates were inverted and incubated for 44 hours at 37° C. After incubation the number of revertant colonies on each plate were counted. […] (“n” represents the number of replicates performed for each data point.)
(§4) Maron and Ames (1983) describe the conflicting views with regard to the statistical treatment of data generated from the test.

TA1538 = assay: Ames assay, dark mutagenicity, strain TA1538; conditions: TA1538; in the presence of S9
Description: as §1, §2, §3, §4

TA100 = test system: TA100
Description: as §1, §2, §3, §4

cell-free virus (HIV) = format: cell-based; conditions: for HIV Log Kill 64 μM / HIV Log Kill 16 μM / HIV Log Kill 32 μM: 1 minute irradiation; for HIV inactivation activity compared with AMT: concentrations of 64 μM of compound or higher
Description: Pathogen inactivation efficiency of several compounds of the present invention was evaluated by examining the ability of the compounds to inactivate cell-free virus (HIV). Inactivation of cell-free HIV was performed as follows.
As in the R17 assay, small aliquots of the compounds listed in TABLES 8 and 9, below, at the concentrations listed in the table, were added to stock HIV-1 to a total of 0.5 mL. The stock HIV (10^5-10^7 plaque forming units/mL) was in DMEM/15% FBS. […] Controls included HIV-1 stock only, HIV-1 plus UVA only, and HIV-1 plus the highest concentration of each psoralen tested, with no UVA. Post irradiation, all samples were stores frozen at −70° C. until assayed for infectivity by a microtiter plaque assay. Aliquots for measurement of residual HIV infectivity in the samples treated with a compound of the present invention were withdrawn and cultured.
Residual HIV infectivity was assayed using an MT-2 infectivity assay. […] The assay medium was 85% DMEM (with a high glucose concentration) containing 100 μg of streptomycin, 100 U of penicillin, 50 μg of gentamicin, and 1 μg of amphotericin B per mL, 15% FBS and 2 μg of Polybrene (Sigma Chemical Co., St. Louis, Mo.) per mL. Test and control samples from the inactivation procedure were diluted in 50% assay medium and 50% normal human pooled plasma. The samples were serially diluted directly in 96-well plates (Corning Glass Works, corning, N.Y.). The plates were mixed on an oscillatory shaker for 30 seconds and incubated at 37° C. in a 5% CO2 atmosphere for 1 to 18 hours. […] After an additional 1 hour of incubation at 37° C. in 5% CO2, 0.075 mL of assay medium containing 1.6% SeaPlaque agarose (FMC Bioproducts, Rockland, me.) and prewarmed to 38.5° C. was added to each well. The plates were kept at 37° C. for a few minutes until several plates had accumulated and then centrifuged in plate carriers at 600×g for 20 minutes in a centrifuge precooled to 10° C. In the centrifuge, cell monolayers formed prior to gelling of the agarose layer. The plates were incubated for 5 days at 37° C. in 5% CO2 and stained by the addition of 0.05 mL of 50 μg/mL propidium iodide (Sigma Chemical Co.) in phosphate-buffered saline (pH 7.4) to each well. After 24 to 48 hours, the red fluorescence-stained microplaques were visualized by placing the plates on an 8,000 μW/cm^2 304 nm UV light box (Fotodyne, Inc., New Berlin, Wis.). The plaques were counted at a magnification of ×20 to ×25 through a stereomicroscope. “n” represents the number of runs for which the data point is an average.

R17 [1] = assay: R17 bacteriophage inactivation screen, varying compound concentration; format: cell-based; conditions: for R17 Log Kill 8 uM / R17 Log Kill 16 uM / R17 Log Kill 32 uM: Table 5, starting titer approx. 7.2 logs
Description: The assay used to predict pathogen inactivation efficiency and to determine nucleic acid binding of the photoreactive binding compounds of the present invention was that in which a bacteriophage, R17, in solution with the desired substrate was irradiated. The ability of the phage to subsequently infect bacteria and inhibit their growth was measured. The bacteriophage was selected for its relatively accessible nucleic acid such that the culture growth inhibition would accurately reflect nucleic acid damage by the test compounds. The bacteriophage assay for nucleic acid binding to test compounds offers a safe and inexpensive procedure to identify compounds likely to display efficient pathogen inactivation. […] An aliquot (0.5 mL) was transferred to a 1.5 mL, snap-top polyethylene tube. An aliquot (0.004-0.040 mL) of the test compound stock solution prepared in water, ethanol or dimethylsulfoxide at 0.80-8.0 mM was added to the tube. Compounds were tested at concentrations between 4 μM and 320 μM. (AMT is commercially available from HRI, Inc., Concord, Calif.; 8-MOP is commercially available from Sigma, St. Louis, Mo.). The tubes were placed in a light device as described in EXAMPLE 1 and irradiated for between 1 and 10 minutes. […] To make the dilutions, a 0.100 mL aliquot of the irradiated solution of phage and test compound was added to the first dilution tube of 0.4 mL of media then 0.020 mL of this solution was added to the second tube of 0.5 mL medium (1:25). The second solution was then diluted serially (1:25) into the remaining tubes. […] After the top agar hardened, the plates were incubated at 37° C. overnight. The plaque forming units were then counted the following morning and the titer of the phage remaining after phototreatment was calculated based on the dilution factors. The following controls were run: the “phage only” in which phage was not treated with test compound and not irradiated (listed as “starting titer” in the tables below); the “UV only” in which the phage was irradiated in the absence of test compound; and the “dark” control in which the phage/test compound solution was not irradiated before it was diluted and plated.

[2] = test system: Salmonella tester strains; assay: Ames assay, dark mutagenicity, overall over tester strains; conditions: two-fold or greater increase in revertants above background and dose dependent response
Description: as §1, §2, §3, §4

R17 [3] = assay: R17 inactivation at constant concentration, varying doses of UV light; format: cell-based, bacteriophage R17; conditions: UV doses 1.0 to 3.0 J/cm^2, FIGS. 11-17
Description: Compounds of the present invention were also tested at a constant concentration for varying doses of UV light. Three sets of 1.5 mL tubes were prepared containing 0.6 mL aliquots of R17 in DMEM (prepared as described above). The compound tested was added at the desired concentration and the samples were vortexed. The samples were then irradiated at intervals of 1.0 J/cm^2, until 3.0 J/cm^2 was reached. Between each 1.0 J/cm^2 interval, 100 μL was removed from each sample and placed in the first corresponding dilution tube, then five sequential dilutions were performed for each compound tested, at all 3 irradiation doses, as described above in this example.
Then 50 μL of Hfr 3000 bacteria was added to each tube, 3 mL of top agar was added and the tube contents were vortexed. The contents of each tube was poured into its own LB plate and the plates were incubated overnight at 37° C. Plaques were counted by visual inspection the following morning.

[4] = Table 8, HIV starting titer approximately 5 logs
[5] = Table 6, 1 minute irradiation = 1.2 J/cm^2, starting titer approx. 7.1 logs
[6] = Table 7, 1 minute irradiation, starting titer approx. 7.1 logs
[7] = Table 9, HIV starting titer approximately 5.4 logs

## Nc1c2ccccc2nc2ccccc12 [9-Aminoacridine, reference compound]
TA1537
  revertant colonies per plate, positive control: 284

## Cc1oc2c(C)c3oc(=O)cc(C)c3cc2c1CNCCN [Compound 1, 4′-(4-amino-2-aza)butyl-4,5′,8-trimethylpsoralen dihydrochloride]
TA1538
  dose at which the only mutagenic response (weak frameshift mutagen) was detected: 5 μg/plate
TA100; TA100, with and without S9
  mutation in the TA100 strain: only in the absence of S9
cell-free virus (HIV); [4]
  HIV Log Kill 64 μM: 2.1 log
R17 [1]; Table 3, runs 1-3, at most
  logs killed in the "dark" control: ≤ 0.1 logs
R17 [1]; Table 4
  R17 inactivation efficiency compared with 8-MOP: much R17 inactivatiotn efficiency than does 8-MOP
R17 [1]; 8 uM, 1 minute irradiation
  R17 Log Kill 8 uM: 1.7 log
R17 [1]; 1 minute irradiation
  R17 Log Kill 16 uM: 2.8 log
  R17 Log Kill 32 uM: 5.3 log
R17 [1]; experiment 1, 32 μM cmpd, 1′ uva, phage only 7.7
  LOG TITER: <1 log
R17 [1]; experiment 1, 32 μM cmpd, 10′ uva, phage only 7.7
  LOG TITER: <1 log
R17 [1]; experiment 1, compound only (32 μM), not irradiated, phage only 7.7
  LOG TITER: 7.6 log
R17 [1]; experiment 2, 3.2 μM cmpd, 1′ uva, phage only 7.8
  LOG TITER: 6.9 log
R17 [1]; experiment 2, 3.2 μM cmpd, 10′ uva, phage only 7.8
  LOG TITER: 6.1 log
R17 [1]; experiment 2, compound only (3.2 μM), not irradiated, phage only 7.8
  LOG TITER: 7.7 log
R17 [1]; experiment 3, 4 μM cmpd, 1′ uva, phage only 7.3
  LOG TITER: 6.3 log
R17 [1]; experiment 3, 8 μM cmpd, 1′ uva, phage only 7.3
  LOG TITER: 5.6 log
R17 [1]; experiment 3, 16 μM cmpd, 1′ uva, phage only 7.3
  LOG TITER: 3.9 log
R17 [1]; experiment 3, compound only (16 μM), not irradiated, phage only 7.3
  LOG TITER: 7.3 log

## Cc1oc2c(C)c3oc(=O)cc(C)c3cc2c1COCCN [Compound 2, 4′-(4-Amino-2-oxa)butyl-4,5′,8-trimiethylpsoralen Hydrochloride]
cell-free virus (HIV); [4]
  HIV Log Kill 16 μM: 1.4 log
  HIV Log Kill 32 μM: 3.8 log
  HIV Log Kill 64 μM: >4.5 log
cell-free virus (HIV)
  HIV inactivation activity compared with AMT: significantly more active than AMT

## Cc1oc2c(C)c3oc(=O)cc(C)c3cc2c1CCN [Compound 3, 4′-(2-aminoethyl)-4,5′,8-trimethylpsoralen Hydrochloride]
[2]
  mutagenicity as defined by the Ames test: no mutagenicity
cell-free virus (HIV); [4]
  HIV Log Kill 32 μM: 2.7 log
  HIV Log Kill 64 μM: >3.8 log
cell-free virus (HIV)
  HIV inactivation activity compared with AMT: significantly more active than AMT
R17 [1]; 8 uM, 1 minute irradiation
  R17 Log Kill 8 uM: >6.2 log
R17 [1]; 1 minute irradiation
  R17 Log Kill 16 uM: >6.2 log
  R17 Log Kill 32 uM: >6.2 log
R17 [1]; Table 6, 8 uM, 1 minute irradiation = 1.2 J/cm^2, starting titer approx. 7.1 logs
  R17 log kill 8 uM: 5.6 log
R17 [1]; [5]
  R17 log kill 16 uM: >6.1 log

## Cc1oc2c(C)c3oc(=O)cc(C)c3cc2c1CNCCCN [Compound 5, 4′-(5-amino-2-aza)pentyl-4,5′,8-trimethylpsoralen dihydrochloride]
cell-free virus (HIV); [4]
  HIV Log Kill 16 μM: 0.9 log
  HIV Log Kill 32 μM: 1.3 log
  HIV Log Kill 64 μM: >2.6 log
R17 [1]; [5]
  R17 log kill 16 uM: 5.6 log
  R17 log kill 32 uM: >6.1 log
  R17 log kill 64 uM: >6.1 log

## Cc1oc2c(C)c3oc(=O)cc(C)c3cc2c1COCCOCCN [Compound 7, 4′-(7-Amino-2,5-oxa)heptyl-4,5′,8-trimethylpsoralen Hydrochloride]
cell-free virus (HIV); [4]
  HIV Log Kill 16 μM: 0.8 log
  HIV Log Kill 32 μM: 2.1 log
  HIV Log Kill 64 μM: 3.5 log
R17 [1]; [6]
  R17 log kill 16 uM: >6 log
  R17 log kill 32 uM: >6 log
  R17 log kill 64 uM: >6 log

## Cc1oc2c(C)c3oc(=O)cc(C)c3cc2c1COCCOCCNCCCCN.Cl.Cl [Compound 8, 4′-(12-Amino-8-aza-2,5-dioxa)dodecyl-4,5′,8-trimethylpsoralen Dihydrochloride]
cell-free virus (HIV); [4]
  HIV Log Kill 16 μM: 1.1 log
  HIV Log Kill 32 μM: 1.9 log
  HIV Log Kill 64 μM: 3.7 log

## Cc1oc2c(C)c3oc(=O)cc(C)c3cc2c1CNCCCOCCCCOCCN [Compound 9]
cell-free virus (HIV); [7]
  HIV Log Kill 16 μM: 0.8 log
  HIV Log Kill 32 μM: 1.4 log
  HIV Log Kill 64 μM: 2.7 log

## Cc1oc2c(C)c3oc(=O)cc(C)c3cc2c1CNCCCCCN.Cl.Cl [Compound 10, 4′-(7-amino-2-aza)heptyl-4,5′,8-trimethylpsoralen dihydrochloride]
R17 [3]
  R17 inactivation compared with AMT: more efficient at inactivating R17 than was AMT
cell-free virus (HIV); [7]
  HIV Log Kill 16 μM: 2.0 log
  HIV Log Kill 32 μM: >3.5 log
  HIV Log Kill 64 μM: >3.5 log

## Cc1oc2c(C)c3oc(=O)cc(C)c3cc2c1CNCCCNCCCN [Compound 12]
R17 [3]
  R17 inactivation compared with AMT: more efficient at inactivating R17 than was AMT
cell-free virus (HIV); [7]
  HIV Log Kill 16 μM: 0.4 log
  HIV Log Kill 32 μM: 0.8 log
  HIV Log Kill 64 μM: 1.3 log

## Cc1oc2c(C)c3oc(=O)cc(C)c3cc2c1CNCCCNCCCCNCCCN.Cl.Cl.Cl.Cl [Compound 15, 4′-(14-Amino-2,6,11-triaza)tetradecyl-4,5′,8-trimethylpsoralen Tetrahydrochloride]
R17 [3]
  R17 inactivation compared with AMT: more efficient at inactivating R17 than was AMT

## Cc1cc(=O)oc2c(C)c3oc(CNCCCCN)c(C)c3cc12.Cl.Cl [Compound 17, 5′-(6-Amino-2-aza)hexyl-4,4′,8-trimethylpsoralen Dihydrochloride]
R17 [3]
  R17 inactivation compared with AMT: more efficient at inactivating R17 than was AMT
cell-free virus (HIV); [7]
  HIV Log Kill 16 μM: 1.2 log
  HIV Log Kill 64 μM: 3.4 log

## Cc1cc(=O)oc2c(C)c3oc(COCCN)c(C)c3cc12 [Compound 18]
cell-free virus (HIV); [7]
  HIV Log Kill 16 μM: 1.0 log
  HIV Log Kill 32 μM: 1.0 log
  HIV Log Kill 64 μM: 3.1 log

## [N-]=[N+]=[N-] [sodium azide, reference compound]
TA100; TA100 −S9, 1.5 μg/plate
  revertant colonies per plate, positive control: 965
